Earlier results on two molecules are cited in US20080167327A1, “HYDRATES OF ERLOTINIB HYDROCHLORIDE” (priority 2006, published 2008).

Structures are written as SMILES. Counter-ions that a name gives are not always drawn.

The conditions of data set [1]: compared with Form A; disclosed in WO 01/34574.
For data set [2] the following is noted: compared with Form B; disclosed in WO 2004/072049.

For `C#Cc1cccc(Nc2ncnc3cc(OCCOC)c(OCCOC)cc23)c1` [Form B, erlotinib hydrochloride], the thermodynamic stability entry in data set [1] is on record as “thermodynamically more stable than Form A”. Take `C#Cc1cccc(Nc2ncnc3cc(OCCOC)c(OCCOC)cc23)c1` [Form E, erlotinib hydrochloride]: the solubility result in data set [2] was “higher solubility”.
